Reference: the NIST ThermoML archive (doi:10.1021/je0500431)
Numbers after ± are expanded uncertainties.

Assay: xn = mol fraction of the nth substance listed
Conditions: Ring tensiometer

OCc1ccccc1 [benzenemethanol] + CCCCO
surface tension liquid-gas [mN/m]
Conditions | x2 = 0 | x2 = 0.0034 | x2 = 0.0044 | x2 = 0.0071 | x2 = 0.0117 | x2 = 0.0213 | x2 = 0.0303 | x2 = 0.0492
293.15 K | 39.05 ± 0.57 | 37.89 ± 0.55 | 37.67 ± 0.55 | 37.12 ± 0.54 | 36.88 ± 0.54 | 36.62 ± 0.53 | 36.46 ± 0.53 | 35.94 ± 0.53
298.15 K | 38.58 ± 0.56 | 37.43 ± 0.55 | 37.23 ± 0.54 | 36.67 ± 0.54 | 36.48 ± 0.53 | 36.17 ± 0.53 | 35.99 ± 0.53 | 35.49 ± 0.52
303.15 K | 38.12 ± 0.55 | 36.95 ± 0.54 | 36.79 ± 0.54 | 36.22 ± 0.53 | 36.03 ± 0.53 | 35.68 ± 0.52 | 35.52 ± 0.52 | 35.06 ± 0.51
308.15 K | 37.63 ± 0.55 | 36.5 ± 0.53 | 36.36 ± 0.53 | 35.77 ± 0.52 | 35.6 ± 0.52 | 35.18 ± 0.52 | 35.02 ± 0.51 | 34.64 ± 0.51
313.15 K | 37.16 ± 0.54 | 36.06 ± 0.53 | 35.93 ± 0.53 | 35.33 ± 0.52 | 35.1 ± 0.52 | 34.74 ± 0.51 | 34.57 ± 0.51 | 34.16 ± 0.5
318.15 K | 36.63 ± 0.54 | 35.63 ± 0.52 | 35.51 ± 0.52 | 34.84 ± 0.51 | 34.66 ± 0.51 | 34.27 ± 0.51 | 34.02 ± 0.5 | 33.74 ± 0.5
323.15 K | 36.18 ± 0.53 | 35.24 ± 0.52 | 35.08 ± 0.52 | 34.44 ± 0.51 | 34.18 ± 0.5 | 33.84 ± 0.5 | 33.59 ± 0.5 | 33.35 ± 0.49

OCc1ccccc1 [benzenemethanol] + CCCO
surface tension liquid-gas [mN/m]
Conditions | x2 = 0 | x2 = 0.003 | x2 = 0.0062 | x2 = 0.0077 | x2 = 0.0116 | x2 = 0.0212 | x2 = 0.0326 | x2 = 0.0498
293.15 K | 39.05 ± 0.57 | 37.57 ± 0.55 | 37.01 ± 0.54 | 36.88 ± 0.54 | 36.75 ± 0.54 | 36.35 ± 0.53 | 35.95 ± 0.53 | 35.62 ± 0.52
298.15 K | 38.58 ± 0.56 | 37.07 ± 0.54 | 36.62 ± 0.54 | 36.48 ± 0.53 | 36.36 ± 0.53 | 35.98 ± 0.53 | 35.6 ± 0.52 | 35.22 ± 0.52
303.15 K | 38.12 ± 0.55 | 36.6 ± 0.54 | 36.23 ± 0.53 | 36.12 ± 0.53 | 36 ± 0.53 | 35.62 ± 0.52 | 35.3 ± 0.52 | 34.86 ± 0.51
308.15 K | 37.63 ± 0.55 | 36.15 ± 0.53 | 35.84 ± 0.53 | 35.74 ± 0.52 | 35.63 ± 0.52 | 35.23 ± 0.52 | 34.98 ± 0.51 | 34.48 ± 0.51
313.15 K | 37.16 ± 0.54 | 35.64 ± 0.52 | 35.44 ± 0.52 | 35.36 ± 0.52 | 35.2 ± 0.52 | 34.83 ± 0.51 | 34.67 ± 0.51 | 34.14 ± 0.5
318.15 K | 36.63 ± 0.54 | 35.19 ± 0.52 | 35.07 ± 0.52 | 35 ± 0.52 | 34.85 ± 0.51 | 34.5 ± 0.51 | 34.38 ± 0.51 | 33.76 ± 0.5
323.15 K | 36.18 ± 0.53 | 34.73 ± 0.51 | 34.68 ± 0.51 | 34.64 ± 0.51 | 34.44 ± 0.51 | 34.13 ± 0.5 | 34.03 ± 0.5 | 33.41 ± 0.49

CCCC(C)O (centres undefined) [pentan-2-ol] + OCc1ccccc1
x1 = 1
Conditions | surface tension liquid-gas [mN/m]
293.15 K | 23.7 ± 0.43
298.15 K | 23.28 ± 0.42
303.15 K | 22.87 ± 0.41
308.15 K | 22.43 ± 0.41
313.15 K | 22.04 ± 0.4
318.15 K | 21.6 ± 0.39
323.15 K | 21.16 ± 0.39
